Reference: patent US20210378995A1, “METHODS AND TOPICAL PHARMACEUTICAL COMPOSITIONS FOR THE TREATMENT OF SKIN MICROVASCULAR DYSFUNCTION” (INSERM (INSTITUT NATIONAL DE LA SANTÉ ET DE LA RECHERCHE …, priority 2018, published 2021)

Tests used:
[1] = Percutaneous passage of GSK2256294 topical formulations in Franz's cells on pig ear skin (Example 5); assay type: in vitro ADME
Procedure: First GSK2256294 topical formulations used DMSO and water 50/50% as vehicle. The experiments were conducted with Franz's cell using the skin of a pig's ear. The donor compartment was filled by an 20 μL of solution with a concentration between 100 to 400 μg/g of GSK2256294. The receptor medium was constituted by 4.5 mL of PBS, was at 32° C. and under magnetic stirring. Samples from the receptor compartment were collected at different times over 24 hours to determine the passage flow of GSK2256294. Second GSK2256294 topical formulation using alcohol, isopropanol, propylene glycol and DMSO 50/50% as vehicle with a GSK2256294's concentration at 200 μg/g were tested in the same conditions. Samples were then frozen at −20° C. The […] quantification was realized by HPLC/MS/MSS.

[2] = Solubility in paraffin wax vehicle; assay type: physicochemical; conditions: paraffin wax vehicle could not be used
[3] = Percutaneous absorption using Franz's cells on pigskin, influence of the solvent (Example 1)
Procedure: The skin of a pig's ears was chosen for the experiments as it is very similar to that of a human skin. […] The receptor compartment contained 4.5 mL of PBS and was under magnetic stirring. […] Samples were frozen at −20° C.

[4] = GSK2256294 4 μg/mL, vehicle DMSO/water 50%/50%
[5] = GSK2256294 40 μg/mL, 'with DMSO'
[6] = GSK2256294 40 μg/mL, vehicle DMSO/water 50%/50%
[7] = GSK2256294, vehicle water at pH3
[8] = GSK2256294, vehicle water at pH3/alcohol 50/50%

flow between 4 and 12 h ([1]; DMSO/water 50/50%, GSK2256294 200 μg/g): 64.83 ng/h/cm^2
flow between 4 and 12 h ([1]; DMSO/water 50/50%, lower end of GSK2256294 concentration range 100 to 400 μg/g): 41.92 ng/h/cm^2
flow between 4 and 12 h ([1]; DMSO/water 50/50%, upper end of GSK2256294 concentration range 100 to 400 μg/g): 102.26 ng/h/cm^2
flow between 4 and 12 h ([1]; alcohol/water 50/50%, GSK2256294 200 μg/g): 55.9 ng/h/cm^2
flow between 4 and 12 h ([1]; isopropanol/water 50/50%, GSK2256294 200 μg/g): 74.38 ng/h/cm^2
flow between 4 and 12 h ([1]; propylene glycol/water 50/50%, GSK2256294 200 μg/g): 48.49 ng/h/cm^2
solubility in paraffin wax [2]: lack of solubility
absorbed and released by the pigskin over 24 hrs [3, 4]: 10.5%
percutaneous absorption flow [3, 4]: 21.9 ng/cm^2/h
passage rate [3, 5]: 7.04%
percutaneous absorption flow [3, 5]: 134.1 ng/cm^2/h
absorbed and released by the pigskin over 24 hrs [3, 6]: 9.02%
percutaneous absorption flow [3, 6]: 167.4 ng/cm^2/h
percutaneous absorption flow ([3]; GSK2256294, vehicle PEG400): No flow
passage rate [3, 7]: 8.31%
percutaneous absorption flow [3, 7]: 167.4 ng/cm^2/h
passage rate [3, 8]: 3.52%
percutaneous absorption flow [3, 8]: 38.6 ng/cm^2/h
SMILES: CNc1nc(C)nc(N[C@H]2CCC[C@@H](C(=O)NCc3ccc(C#N)cc3C(F)(F)F)C2)n1 [GSK2256294, (1R,3S)—N-[[4-cyano-2-(trifluoromethyl)phenyl]methyl]-3-[[4-methyl-6-(methylamino)-1,3,5-triazin-2-yl]amino]cyclohexane-1-carboxamide]
